Broadly, the IC50 is the point on the concentration scale where inhibition reaches its midpoint.

From patent EP4094762A1, “TREATMENT OF NEUROLOGICAL INDICATIONS” (UCL Business Ltd, priority 2021, dated 2022) come the findings set out here.

Structures are written as SMILES.

The target in this assay is T1, P2Y1 receptor (Homo sapiens, UniProt P47900).
T1 construct: expressed in transfected cells
T1 sequence (P47900 whole entry): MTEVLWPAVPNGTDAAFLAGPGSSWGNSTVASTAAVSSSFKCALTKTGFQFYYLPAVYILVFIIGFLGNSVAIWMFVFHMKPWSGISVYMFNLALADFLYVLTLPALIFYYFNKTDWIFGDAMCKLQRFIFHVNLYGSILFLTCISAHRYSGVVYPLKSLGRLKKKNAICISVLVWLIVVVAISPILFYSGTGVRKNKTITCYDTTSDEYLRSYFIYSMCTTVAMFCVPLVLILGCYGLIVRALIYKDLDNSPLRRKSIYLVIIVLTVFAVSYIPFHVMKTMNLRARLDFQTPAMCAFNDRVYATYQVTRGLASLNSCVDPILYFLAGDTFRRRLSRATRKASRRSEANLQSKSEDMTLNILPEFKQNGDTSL
In words: Cell based HTRF assay measuring IP1 accumulation; antagonism of the P2Y1 agonist MRS2365. To be noted: rounded to nearest whole number; read-out: IC50 IP1. Here is the method: IC50 values were determined using a cell based assay in stably transfected cells overexpressing the P2Y1 receptor. The assay system is a high throughput […] assay measuring accumulation of the intracellular messenger inositol monophosphate (IP1), generated intracellularly following activation of P2Y1.
P2Y1 overexpressing cells were maintained in T175 flasks. The day before the assay, these cells were split and 20µl cell suspension transferred to each well of white 384-well assay plates at a cell density of 0.5x10^6 cells/mL. Plates were pulse centrifuged, then incubated overnight at 37°C / 5% CO2 prior to assay.
On day of assay, medium was removed from cells and replaced with stimulation buffer. […] Positive control antagonist curves with standard compounds were included on each plate. Plates were incubated with antagonists for 1 hour prior to addition of 5nM of the agonist MRS2365, dispensed using a Bravo liquid handler. Following agonist addition, plates were incubated for 60 minutes prior to assay. Both incubations were carried out at 37°C / 5% CO2.
For the assay, IP1 accumulation was quantified using the IPOne kit according to manufacturer's instructions. In short, a standard curve was prepared for IP1 quantification, and cells lysed using kit lysis buffer. Assay reagents were added to the lysates, and incubated for 1 hour at room temperature without spinning or shaking. Plates were analysed on a BMG Pherastar plate reader, and IP1 signal generated in cells interpolated from the standard curve.
On to `CC(C)(C)c1ccccc1Oc1ncccc1NC(=O)NCCc1ccccc1` [S43], for which the IC50 came out at 958 nM. As to `Cc1c(C#N)cccc1Oc1ncccc1NC(=O)Nc1ccc(OC(F)(F)F)cc1` [S44], the IC50 came out at 1030 nM. Take `CC(C)(C)c1ccccc1Oc1ccsc1NC(=O)Nc1ccc(OC(F)(F)F)cc1` [S45]: the IC50 came to 1060 nM. For `Cc1cccc(Oc2ncccc2NC(=O)Nc2ccc(OC(F)(F)F)cc2)c1` [S47], the IC50 turned out to be 1100 nM.

As to `Cn1cc(-c2cnc(Oc3ccccc3C(C)(C)C)c(NC(=O)Nc3ccc(OC(F)(F)F)cc3)c2)cn1` [S48], the half-maximal inhibitory concentration (IC50) turned out to be 1110 nM.

As to `Cc1c(Oc2ncccc2NC(=O)Nc2ccc(OC(F)(F)F)cc2)cccc1-c1ccc2c(c1)OCCN2` [S49], the IC50 is 1240 nM. `O=C(Nc1ccc(OC(F)(F)F)cc1)Nc1cccnc1Oc1cc(O)ccc1Br` [S50]: the IC50 amounted to 1280 nM. `O=C(Nc1ccc(OC(F)(F)F)cc1)Nc1cccnc1Oc1cccc(Br)c1` [S51]: the IC50 was 1320 nM.

`O=C(Nc1ccc(OC(F)(F)F)cc1)Nc1cccnc1Oc1cccc(O)c1` [S52]: the IC50 was 1410 nM. `CC(C)(C)c1ccccc1Oc1nnccc1NC(=O)Nc1ccc(OC(F)(F)F)cc1` [S53]: the IC50 was found to be 1770 nM. Consider `CC(C)(C)c1ccccc1Oc1nccc(O)c1NC(=O)Nc1ccccc1` [S54], for which the concentration for half-maximal inhibition (IC50) came to 1770 nM. Take `Cc1ccc(C)c(Oc2ncccc2NC(=O)Nc2ccc(OC(F)(F)F)cc2)c1` [S55]: the IC50 was determined as 1970 nM. The figure for `CC(C)(C)c1ccccc1Oc1ncc(-c2cccc(C#N)c2)cc1NC(=O)Nc1ccc(OC(F)(F)F)cc1` [S56] is 1960 nM; for `Cc1ccccc1Oc1ncc(C(F)F)cc1NC(=O)Nc1ccc(OC(F)(F)F)cc1` [S57] it is 1990 nM.

Turning to `CC(C)(C)c1ccccc1Oc1ncc(-c2ccc(C#N)cc2)cc1NC(=O)Nc1ccc(OC(F)(F)F)cc1` [S58], the IC50 amounted to 2100 nM. Under `Cc1c(Oc2ncccc2NC(=O)Nc2ccc(OC(F)(F)F)cc2)cccc1N1CC2CC1CO2` (centres unmarked) [S59] stands 2140 nM. Under `Cc1c(Oc2ncccc2NC(=O)Nc2ccc(OC(F)(F)F)cc2)cccc1-c1cnn(C)c1` [S61] stands 2460 nM; under `COc1ccc([C@H](C)NC(=O)Nc2cccnc2Oc2ccccc2C(C)(C)C)cc1` [S62], 2470 nM; under `N#Cc1cccc(-c2cccc(Oc3ncccc3NC(=O)Nc3ccc(OC(F)(F)F)cc3)c2)c1` [S63], 2510 nM.

As for `Cc1cnc(Oc2cccc(N3CCCCC3)c2C)c(NC(=O)Nc2ccc(OC(F)(F)F)cc2)c1` [S64], the IC50 came out at 2810 nM. For the molecule `O=C(Nc1ccc(OC(F)(F)F)cc1)Nc1cccnc1Oc1ccccc1` [S65], the IC50 was found to be 2860 nM. Regarding `C=Cc1cnc(Oc2ccccc2C)c(NC(=O)Nc2ccc(OC(F)(F)F)cc2)c1` [S67], the IC50 was found to be 3350 nM. With `C#Cc1cnc(Oc2ccccc2C)c(NC(=O)Nc2ccc(OC(F)(F)F)cc2)c1` [S68], the IC50 was found to be 3590 nM. The figure for `Cc1ccccc1Oc1ncc(C(F)(F)F)cc1NC(=O)Nc1ccc(OC(F)(F)F)cc1` [S69] is 4390 nM; for `Cc1ccccc1COc1ncccc1NC(=O)Nc1ccc(OC(F)(F)F)cc1` [S70] it is 4590 nM. The figure for `N#Cc1ccc(-c2cccc(Oc3ncccc3NC(=O)Nc3ccc(OC(F)(F)F)cc3)c2)cc1` [S71] is 4940 nM; for `Cc1ccccc1Oc1ncc(Br)cc1NC(=O)Nc1ccc(OC(F)(F)F)cc1` [S72] it is 4940 nM. For `N#Cc1cccc(Oc2ncccc2NC(=O)Nc2ccc(OC(F)(F)F)cc2)c1` [S73], the IC50 was 5840 nM. Take `CC(c1ccccc1Oc1ncccc1NC(=O)Nc1ccc(OC(F)(F)F)cc1)N1CCCCC1` (centres unmarked) [S74]: the IC50 came out at 6000 nM. As to `Cc1c(Oc2ncccc2NC(=O)Nc2ccc(OC(F)(F)F)cc2)cccc1S(C)(=O)=O` [S75], the IC50 worked out at 6590 nM. Under `CC(C)(C)c1ccccc1Oc1ncccc1NC(=O)NC1CC2(C1)CN(CC(F)(F)F)C2` [S76] stands 7070 nM; under `CC(C)(O)c1ccccc1Oc1ncccc1NC(=O)Nc1ccc(OC(F)(F)F)cc1` [S77], 7120 nM.
